Where a SMILES comes first, the peptide text is derived from it. Where no end group is shown, it is not given here.
Experiments:
[1] = molecular target: T1, GPIb (Homo sapiens, UniProt P07359); assay: Inhibition of ristocetin-induced binding of 125I-vWF to formalin-fixed platelets by peptides; conditions: formalin-fixed platelets 1 x 10¹¹/liter, 125I-vWF 5 micrograms/ml, ristocetin 1.0 mg/ml, 30 minutes room temperature; read-out: IC₅₀ (concentration of peptide which inhibited binding by 50%)
T1 construct: endogenous in cells; host or cells: fresh or formalin-fixed platelets
T1 sequence (P07359 17-652): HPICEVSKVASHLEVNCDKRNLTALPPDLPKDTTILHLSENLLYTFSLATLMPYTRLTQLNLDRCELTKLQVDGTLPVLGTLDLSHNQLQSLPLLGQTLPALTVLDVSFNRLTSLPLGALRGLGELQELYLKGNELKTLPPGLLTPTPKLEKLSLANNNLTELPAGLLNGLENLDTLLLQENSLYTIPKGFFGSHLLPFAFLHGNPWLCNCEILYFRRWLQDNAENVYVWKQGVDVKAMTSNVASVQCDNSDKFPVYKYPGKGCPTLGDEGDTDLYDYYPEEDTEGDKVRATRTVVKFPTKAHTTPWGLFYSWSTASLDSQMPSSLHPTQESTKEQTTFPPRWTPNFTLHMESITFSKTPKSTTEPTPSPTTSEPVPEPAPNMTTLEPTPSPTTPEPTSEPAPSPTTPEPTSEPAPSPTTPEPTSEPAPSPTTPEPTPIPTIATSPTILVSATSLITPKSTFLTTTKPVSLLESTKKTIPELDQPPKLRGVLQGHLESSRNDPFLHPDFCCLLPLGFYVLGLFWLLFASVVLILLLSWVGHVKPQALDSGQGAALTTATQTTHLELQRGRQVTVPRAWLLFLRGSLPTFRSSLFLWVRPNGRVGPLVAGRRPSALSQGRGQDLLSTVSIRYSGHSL
T1 sequence (P13224 26-206 partner): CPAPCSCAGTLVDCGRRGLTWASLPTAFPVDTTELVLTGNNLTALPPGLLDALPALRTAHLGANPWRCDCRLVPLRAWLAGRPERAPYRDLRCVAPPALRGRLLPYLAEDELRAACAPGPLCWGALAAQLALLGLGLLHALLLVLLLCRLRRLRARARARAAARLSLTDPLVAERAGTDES
T1 sequence (P14770 17-177 partner): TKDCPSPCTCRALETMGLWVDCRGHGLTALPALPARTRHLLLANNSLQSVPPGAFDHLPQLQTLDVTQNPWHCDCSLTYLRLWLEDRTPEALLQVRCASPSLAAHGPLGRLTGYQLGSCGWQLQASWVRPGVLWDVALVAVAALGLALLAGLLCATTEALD
Protocol: To test the inhibition of ristocetin-induced binding of vWF to platelets by peptides, formalin-fixed platelets were used at a final concentration of 1 x 10¹¹/liter. Peptides to be tested were then added at various concentrations. One third final volume of vWF deficient plasma was then added followed by ¹²⁵I-vWF a final concentration of 5 micrograms/ml. Ristocetin was then added at a concentration of 1.0 mg/ml. After incubation for 30 minutes at room temperature bound and free ligand were separated by centrifuging 50 microliters of the mixture through 300 microliters of 20% sucrose at 12,000 x g for 4 minutes. The platelet pellet was then separated from the rest of the mixture to determine platelet-bound radioactivity. Nonspecific binding was defined as the residual binding of ¹²⁵I-vWF in the presence of a 50-fold excess of unlabeled vWF but in the absence of any peptides.
(§1) Percent inhibition with a given peptide was calculated by dividing the specific cpm in the absence of peptide. The IC₅₀'s (concentration of peptide which inhibited binding by 50%) for the peptides tested were as follows: […]

[2] = molecular target: T1, GPIb; assay: Inhibition of 125I-asialo-vWF binding to fresh platelets by peptides
Protocol: To test the inhibitions of asialo-vWF binding to platelets, fresh platelets were used. These were prepared by drawing blood into 11 millimolar trisodium citrate and 2 millimolar EDTA. Platelet-rich plasma was then prepared by differential centrifugation. The platelet count was then adjusted to 1 x 10¹¹/liter. Peptides were then added to various concentrations and ¹²⁵I-asialo-vWF was then added at a final concentration of 5 micrograms/ml. After incubation for 30 minutes at room temperature bound and free ligand were separated by centrifuging 50 microliters of the mixture through 300 microliters of 20% sucrose at 12,000 x g for 4 minutes. The platelet pellet was then separated from the rest of the mixture to determine platelet-bound radioactivity. Non-specific binding was defined as the residual binding of ¹²⁵I-asialo-vWF in the presence of a 50-fold excess of unlabeled vWF but in the absence of any peptides.
as §1, with “dividing the specific cpm obtained when various concentrations of peptide were added by” for “dividing”

[3] = fresh platelets 1 x 10¹¹/liter, 125I-asialo-vWF 5 micrograms/ml, 30 minutes room temperature, read-out: IC₅₀ (concentration of peptide which inhibited binding by 50%)

Compound	IC50 [1]	IC50 [2, 3]	IC50 [2]
KRKRKRKRGDV [(KR)₄GDV]	16 µM	15 µM	–
YRGDV [YRGDV, reference compound]	> 600 µM	–	–
N=C(N)NCCC[C@H](NC(=O)[C@H](CCCCN)NC(=O)[C@H](CCCNC(=N)N)NC(=O)[C@@H](N)CCCCN)C(=O)O [(KR)₂] (H-KRKR-OH)	200 µM	–	–
KRKRKR [(KR)₃]	120 µM	23 µM	–
RRRRRRRRGDV [(R)₈GDV]	6 µM	–	3.5 µM

From patent EP0317278A2, “Proteolytic fragments and synthetic peptides that block the binding of von Willebrand factor to the platelet membrane glycoprotein Ib” (SCRIPPS CLINIC AND RESEARCH FOUNDATION, priority 1987, dated 1989)
